Results as given in PubChem BioAssay (NCI).
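Briefly, cells in 96-well plates were exposed to five compound concentrations for 48 h, and endpoints were estimated by linear interpolation. Here, GI50 denotes the concentration required for 50% inhibition of growth. TGI is the concentration that stops growth completely.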

Experiments:
Assay in all cases: NCI anticancer screen, dose series, 48 h
HL-60(TB) leukemia = test system: HL-60(TB) leukemia
PC-3 prostate = test system: PC-3 prostate
786-0 renal = test system: 786-0 renal
RPMI-8226 leukemia = test system: RPMI-8226 leukemia
LOX IMVI melanoma = test system: LOX IMVI melanoma
MOLT-4 leukemia = test system: MOLT-4 leukemia
CAKI-1 renal = test system: CAKI-1 renal
NCI-H460 lung = test system: NCI-H460 lung
OVCAR-3 ovarian = test system: OVCAR-3 ovarian
SF-295 CNS = test system: SF-295 CNS
BT-549 breast = test system: BT-549 breast
HCT-116 colon = test system: HCT-116 colon
OVCAR-8 ovarian = test system: OVCAR-8 ovarian
RXF 393 renal = test system: RXF 393 renal
MCF7 breast = test system: MCF7 breast
M14 melanoma = test system: M14 melanoma
DU-145 prostate = test system: DU-145 prostate
SF-539 CNS = test system: SF-539 CNS
NCI-H522 lung = test system: NCI-H522 lung
ACHN renal = test system: ACHN renal
T-47D breast = test system: T-47D breast
CCRF-CEM leukemia = test system: CCRF-CEM leukemia
EKVX NSCLC = test system: EKVX NSCLC
KM12 colon = test system: KM12 colon
HOP-92 NSCLC = test system: HOP-92 NSCLC
TK-10 renal = test system: TK-10 renal
U251 CNS = test system: U251 CNS
OVCAR-5 ovarian = test system: OVCAR-5 ovarian
COLO 205 colon = test system: COLO 205 colon
SNB-75 CNS = test system: SNB-75 CNS
SNB-19 CNS = test system: SNB-19 CNS
SK-MEL-2 melanoma = test system: SK-MEL-2 melanoma
K-562 leukemia = test system: K-562 leukemia
UACC-62 melanoma = test system: UACC-62 melanoma
HT29 colon = test system: HT29 colon
HS 578T breast = test system: HS 578T breast
NCI-H226 lung = test system: NCI-H226 lung
A498 renal = test system: A498 renal
HCC-2998 colon = test system: HCC-2998 colon
UACC-257 melanoma = test system: UACC-257 melanoma
HCT-15 colon = test system: HCT-15 colon
SR leukemia = test system: SR leukemia
SK-OV-3 ovarian = test system: SK-OV-3 ovarian
SF-268 CNS = test system: SF-268 CNS
A549 NSCLC = test system: A549 NSCLC
SK-MEL-5 melanoma = test system: SK-MEL-5 melanoma
OVCAR-4 ovarian = test system: OVCAR-4 ovarian
MDA-MB-231 breast = test system: MDA-MB-231 breast
MDA-MB-435 = test system: MDA-MB-435
HOP-62 NSCLC = test system: HOP-62 NSCLC
SN12C renal = test system: SN12C renal
MALME-3M melanoma = test system: MALME-3M melanoma
SK-MEL-28 melanoma = test system: SK-MEL-28 melanoma
NCI/ADR-RES ovarian = test system: NCI/ADR-RES ovarian
SW-620 colon = test system: SW-620 colon
UO-31 renal = test system: UO-31 renal

`CC(=O)n1c(-c2ccc(Cl)c(Cl)c2)cn(-c2ccc(Cl)cc2)c1=O` gave a GI50 (HL-60(TB) leukemia) of 34.8 µM, a TGI (HL-60(TB) leukemia) greater than 100 µM and a GI50 (PC-3 prostate) of 26.6 µM. The TGI (PC-3 prostate) was greater than 100 µM, the GI50 (786-0 renal) was 13.4 µM and the TGI (786-0 renal) was 32.9 µM. For the same molecule, the GI50 (RPMI-8226 leukemia) was 18.8 µM, the TGI (RPMI-8226 leukemia) was 67.7 µM and the GI50 (LOX IMVI melanoma) was 83.6 µM. The TGI (LOX IMVI melanoma) was greater than 100 µM, the GI50 (MOLT-4 leukemia) was 23.3 µM and the TGI (MOLT-4 leukemia) was 90.2 µM. It also gave a GI50 (CAKI-1 renal) of 20.8 µM, a TGI (CAKI-1 renal) of 43.9 µM and a GI50 (NCI-H460 lung) of 30.8 µM. It also gave a TGI (NCI-H460 lung) greater than 100 µM, a GI50 (OVCAR-3 ovarian) of 51.2 µM and a TGI (OVCAR-3 ovarian) greater than 100 µM. The GI50 (SF-295 CNS) was 11.9 µM, the TGI (SF-295 CNS) was 28.8 µM and the GI50 (BT-549 breast) was 17 µM. For the same molecule, the TGI (BT-549 breast) was 36.6 µM, the GI50 (HCT-116 colon) was 19.6 µM and the TGI (HCT-116 colon) was greater than 100 µM. It also gave a GI50 (OVCAR-8 ovarian) of 23.1 µM, a TGI (OVCAR-8 ovarian) of 76.5 µM and a GI50 (RXF 393 renal) of 11.4 µM. The TGI (RXF 393 renal) was 27 µM, the GI50 (MCF7 breast) was 30.8 µM and the TGI (MCF7 breast) was greater than 100 µM. For the same molecule, the GI50 (M14 melanoma) was 27.6 µM, the TGI (M14 melanoma) was greater than 100 µM and the GI50 (DU-145 prostate) was 17.4 µM. The TGI (DU-145 prostate) was 45.8 µM, the GI50 (SF-539 CNS) was 14.1 µM and the TGI (SF-539 CNS) was 31.9 µM. The GI50 (NCI-H522 lung) was 19.3 µM, the TGI (NCI-H522 lung) was 53.6 µM and the GI50 (ACHN renal) was 27.8 µM. It also gave a TGI (ACHN renal) greater than 100 µM, a GI50 (T-47D breast) of 19.3 µM and a TGI (T-47D breast) of 49.5 µM. It also gave a GI50 (CCRF-CEM leukemia) of 16.8 µM, a TGI (CCRF-CEM leukemia) of 38 µM and a GI50 (EKVX NSCLC) of 12.5 µM. It also gave a TGI (EKVX NSCLC) of 34.6 µM, a GI50 (KM12 colon) of 67 µM and a TGI (KM12 colon) greater than 100 µM. The GI50 (HOP-92 NSCLC) was 13.9 µM, the TGI (HOP-92 NSCLC) was 30.2 µM and the GI50 (TK-10 renal) was 18.7 µM. It also gave a TGI (TK-10 renal) of 38 µM, a GI50 (U251 CNS) of 16.3 µM and a TGI (U251 CNS) of 37.5 µM. For the same molecule, the GI50 (OVCAR-5 ovarian) was 55 µM, the TGI (OVCAR-5 ovarian) was greater than 100 µM and the GI50 (COLO 205 colon) was 53 µM. It also gave a TGI (COLO 205 colon) greater than 100 µM, a GI50 (SNB-75 CNS) of 13.6 µM and a TGI (SNB-75 CNS) of 31.4 µM. For the same molecule, the GI50 (SNB-19 CNS) was 13.4 µM, the TGI (SNB-19 CNS) was 40.7 µM and the GI50 (SK-MEL-2 melanoma) was 22.4 µM. The TGI (SK-MEL-2 melanoma) was 69.2 µM, the GI50 (K-562 leukemia) was 24.1 µM and the TGI (K-562 leukemia) was 80.5 µM. It also gave a GI50 (UACC-62 melanoma) of 19.8 µM, a TGI (UACC-62 melanoma) of 55.8 µM and a GI50 (HT29 colon) of 57.7 µM. It also gave a TGI (HT29 colon) greater than 100 µM, a GI50 (HS 578T breast) of 15.5 µM and a TGI (HS 578T breast) of 36.5 µM. For the same molecule, the GI50 (NCI-H226 lung) was 24.3 µM, the TGI (NCI-H226 lung) was 74.5 µM and the GI50 (A498 renal) was 20.9 µM. It also gave a TGI (A498 renal) of 47 µM, a GI50 (HCC-2998 colon) of 91.5 µM and a TGI (HCC-2998 colon) greater than 100 µM. For the same molecule, the GI50 (UACC-257 melanoma) was 22.4 µM, the TGI (UACC-257 melanoma) was 66.8 µM and the GI50 (HCT-15 colon) was 63.7 µM. The TGI (HCT-15 colon) was greater than 100 µM, the GI50 (SR leukemia) was 16.1 µM and the TGI (SR leukemia) was 33 µM. It also gave a GI50 (SK-OV-3 ovarian) of 19.2 µM, a TGI (SK-OV-3 ovarian) of 44.1 µM and a GI50 (SF-268 CNS) of 23.5 µM. The TGI (SF-268 CNS) was greater than 100 µM, the GI50 (A549 NSCLC) was 39.3 µM and the TGI (A549 NSCLC) was greater than 100 µM. It also gave a GI50 (SK-MEL-5 melanoma) of 32.2 µM, a TGI (SK-MEL-5 melanoma) greater than 100 µM and a GI50 (OVCAR-4 ovarian) of 20 µM. The TGI (OVCAR-4 ovarian) was 57.7 µM, the GI50 (MDA-MB-231 breast) was 17.6 µM and the TGI (MDA-MB-231 breast) was 62.6 µM. For the same molecule, the GI50 (MDA-MB-435) was 84.1 µM, the TGI (MDA-MB-435) was greater than 100 µM and the GI50 (HOP-62 NSCLC) was 20.4 µM. It also gave a TGI (HOP-62 NSCLC) of 43.8 µM, a GI50 (SN12C renal) of 31.8 µM and a TGI (SN12C renal) greater than 100 µM. It also gave a GI50 (MALME-3M melanoma) of 32 µM, a TGI (MALME-3M melanoma) greater than 100 µM and a GI50 (SK-MEL-28 melanoma) greater than 100 µM. For the same molecule, the TGI (SK-MEL-28 melanoma) was greater than 100 µM, the GI50 (NCI/ADR-RES ovarian) was 35.2 µM and the TGI (NCI/ADR-RES ovarian) was greater than 100 µM. It also gave a GI50 (SW-620 colon) of 30.9 µM, a TGI (SW-620 colon) greater than 100 µM and a GI50 (UO-31 renal) of 24.7 µM. For the same molecule, the TGI (UO-31 renal) was 51.4 µM.
